Here are results for one compound from patent US20060148848A1, “Compounds and methods for treating cancer and inflammation” (QLT, Inc., priority 2002, published 2006).

Data set [1] deals with T1, SGK2α (Homo sapiens, UniProt Q9HBY8).
T1 construct: made in house; host or cells: baculovirus; Sf9 (virus generation) and High Five insect cells (expression)
T1 sequence (Q9HBY8 1-367): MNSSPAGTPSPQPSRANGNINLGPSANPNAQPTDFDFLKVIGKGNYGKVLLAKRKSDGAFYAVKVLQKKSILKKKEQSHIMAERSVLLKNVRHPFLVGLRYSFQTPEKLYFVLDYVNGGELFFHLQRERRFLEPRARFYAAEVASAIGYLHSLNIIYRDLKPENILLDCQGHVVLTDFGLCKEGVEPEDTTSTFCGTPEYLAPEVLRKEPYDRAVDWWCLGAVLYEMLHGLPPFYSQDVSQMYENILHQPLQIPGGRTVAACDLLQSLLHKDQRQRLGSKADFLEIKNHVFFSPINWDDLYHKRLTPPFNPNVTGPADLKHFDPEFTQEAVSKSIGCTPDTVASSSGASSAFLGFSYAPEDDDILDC
Nature of the data set: SGK2α in vitro kinase assay. It is filed as biochemical. As to conditions: recombinant human GST-SGK2α, [γ-32P]-ATP, 15 minutes at ambient temperature. The text has this: SGK2α cDNA was cloned from human brain cDNA library by the polymerase chain reaction (PCR) technique and subsequently inserted directly into pPCR-2.1 T/A cloning vector (Strategene). After DNA sequencing, the confirmed wild-type human SGK2α cDNA was subcloned into baculovirus expression vector pAcG2T (BD PharMingen) for recombinant protein expression in insect cells. Expression of human SGK2α as a fusion protein required that the cDNA be ligated into the polyclonal site situated in frame and downstream of the glutathione-S-transferase gene of the baculovirus transfer vector pAcG2T. The 1104 base pair SGK2α coding sequence was excised from the pPCR-2.1 T/A vector using the Bam HI and Eco RI restriction sites generated the 5′ and 3′ of the coding sequence respectively by PCR amplification. This DNA fragment was directionally subcloned in-frame into the Bam HI and Eco RI polyclonal sites of the pAcG2T vector. Positive recombinant clones of SGK2α in the pAcG2T vector were determined by restriction enzyme analysis with Bam HI and Eco RI restriction enzymes.
Active SGK2α enzyme was expressed using the baculovirus expression vector system in a two-step process. […] A complete quantitative and qualitative analysis of the protein was monitored using Coomassie blue staining and Western blot analysis using anti-GST specific antibody (Kinetek). […]

Data set [2] deals with H460 cells. Nature of the data set: Cell proliferation (3H-thymidine incorporation), H460. Format: cell-based. As to conditions: Homo sapiens, NCI-H460, 24 hours, read-out: in vitro inhibition of cell proliferation. The text has this:
(§1) This procedure (Jelinkova, R. B. et al., “Antiproliferative effect of a lectin- and anti-Thy-1.2 antibody-targeted HPMA copolymer-bound doxorubicin on primary and metastatic human colourectal carcinoma and on human colourectal carcinoma transfected with the mouse Thy-1.2 gene”, Bioconjug. Chem. (2000), Vol. 11, No. 5, pp. 664-73) is used to assess the effect compounds have on various cell lines with respect to proliferation. The rate of anchorage-independent growth of various tumour cells is quantified by measuring the amount of free isotopic thymidine that has been incorporated into the cells over a period of time. The effect of any compound to inhibit the proliferation of various tumour cells could be used as an indication of its ability to prevent disease progression in cancer.
(§2) Cultured tumour cells are harvested cells as per normal procedures: i.e. trypsinize, centrifuge and count cells. […]
(§3) After incubation, plates are observed under the microscope for obvious cell death, abnormal cell shape, crystal formation of the compound, etc. […] Finally, 100 μL of scintillation fluid is added to each well and the plates are counted in a Wallac™ 1450 Microbeta™ counter according to user manual instructions.
(§4) The amount of inhibition is determined by the following formula: % inhibition=100−[(AVG treatment−AVG positive control)/[…]]

The subject of data set [3] is HUVEC cells. Description: Cell proliferation (3H-thymidine incorporation), HUVEC. Format: cell-based. As to conditions: Homo sapiens, 24 hours, read-out: in vitro inhibition of cell proliferation.
Text: as §1, §2, §3, §4
On the technique in general: Incorporation of labelled thymidine or its analogues reports DNA synthesis.

Data set [4] has as its system PC3 cells. Nature of the data set: Cell proliferation (3H-thymidine incorporation), PC3. It is filed as cell-based. As to conditions: Homo sapiens, PC-3, 24 hours, read-out: in vitro inhibition of cell proliferation.
Text: as §1, §2, §3, §4

The test system of data set [5] is HS27 cells. Nature of the data set: Cytotoxicity assay (calcein AM cell viability), HS27. As to conditions: 50 μM, approximately 24 hours. It is filed as cell-based. The text has this:
(§5) This procedure is used to assess the effects compounds have on various cell lines with respect to cell viability. Cell viability is quantified using calcein AM and measuring its conversion to a fluorescent product (calcein) with a fluorimeter.
(§6) The principle of this assay is based on the presence of ubiquitous intracellular esterase activity found in live cells. By enzymatic reaction of esterase, non-fluorescent cell-permeant calcein AM is converted to the intensely fluorescent calcein. The polyanionic dye calcein is retained within live cells, producing a green fluorescence in live cells. […]
(§7) Cells were collected from tissue culture flasks and trypsinized, centrifuged, resuspended and counted. […]
(§8) The calcein AM solution is prepared by added 50 μg of calcein AM crystal (m.w.=994.87 g/mol, Molecular Probes, Eugene, Oreg.) and nnhydrous DMSO (Sigma Aldrich) to make 1 mM stock and diluting stock to 2× the final desired concentration in 1×DPBS just before the assay. […] Fluorescence data was read and recorded (Fluoroskan Ascent® FL fluorimeter (excitation˜485 nm, emission˜527 nm)).
(§9) The values for replicates (usually six) are averaged and % inhibition is calculated as follows: % inhibition=100−[(AVG treatment−AVG positive control)/(AVG negative control−AVG positive control)*100]

The subject of data set [6] is HUVEC cells. Nature of the data set: Cytotoxicity assay (calcein AM cell viability), HUVEC. It is filed as cell-based. As to conditions: 50 μM, approximately 24 hours.
Text: as §5, §6, §7, §8, §9

Data set [7] has as its system LL-86 cells. Description: Cytotoxicity assay (calcein AM cell viability), LL-86. Format: cell-based. As to conditions: 50 μM, approximately 24 hours.
Text: as §5, §6, §7, §8, §9

Usually IC50 stands for the concentration at which inhibition is half-maximal.

As for `CCc1c2cc(OC)c(OC)cc2cc(=O)n1Cc1ccccc1` [2-Benzyl-1-ethyl-6,7-dimethoxy-2H-isoquinolin-3-one], the half-inhibitory concentration (IC50) in data set [1] was found to be 970 nM. Moreover, the inhibition at 50 µM in data set [2] is 27%; in data set [3], 42%; in data set [4] it was 67%. Besides, the in vitro cytotoxicity is on record as 0% in data set [5], 4% in data set [6] and 0% in data set [7].
